{
  "source": "patent US5763395A",
  "about": "“Stabilized lanthionine bacteriocin compositions” (Ambi Inc., priority 1995, dated 1998)",
  "key": {"[1]": {"assay": "Nisin stability in topical germicide formulations under stressed conditions (RPHPLC)", "conditions": "for Residual nisin concentration as a percentage of the theoretical concentration: 5 days 40° C., pH 6, additive 1 mM (nisin = control)", "text": "i) Analytical reverse phase high pressure liquid chromatography (RPHPLC). The analyte (nisin) in solution is passed through a column of hydrophic beads to which the nisin tends to bind. The solution flowing through the column is then made progressively more hydrophobic by increasing acetonitrile concentration until it causes the nisin to be released from the beads and eluted from the column. The emergence of the nisin from the column is detected by measuring the absorbance of light at 210 nm by the effluent.\nIn order to expedite the execution of these experiments the formulations were subjected to \"stressed\" conditions, ie pH 6 and 40° C.; both intended to accelerate any degradation effects taking place. The stability of nisin in the formulations was evaluated by RPHPLC.\nFormulations were prepared with nisin at 25 μg/ml and titrated to pH 6. […]"}, "[2]": {"assay": "Commonly used antioxidants tested for protection of nisin in formulation", "format": "physicochemical", "conditions": "methods of Example 2", "procedure": "In order to further analyze the nisin degradation associated with one particular surfactant/emulsifier, polysorbate, material was obtained from as many manufacturers as possible. Where possible, multiple production batches were obtained from each manufacturer. Other emulsifiers or surfactants believed to closely resemble polysorbate in their properties as well as dissimilar surfactants were also tested. An oral rinse formulation containing nisin was prepared using each of these compounds and, after incubation, samples were analyzed to evaluate nisin stability.\nA number of commonly used antioxidants were tested for their ability to protect nisin in formulation using the methods described in Example 2. None of the compounds tested gave satisfactory protection of nisin."}, "[3]": {"assay": "Glycerol/sorbitol batches and chelating agents screened for effects on nisin stability in oral rinse formulations (RPHPLC)", "format": "physicochemical", "procedure": "i) Analytical reverse phase high pressure liquid chromatography (RPHPLC).\nFormulations of nisin useful as oral rinses comprising EDTA and the humectant glycerol were also prepared and analyzed by RPHPLC.\nGlycerol and sorbitol from a number of sources, and a number of alternative chelators, were screened (Tables 2 and 3)."}, "[4]": {"conditions": "T-MAZ 20 1%, 6 days at 40° C., initial nisin 25 μg/ml, label nisin = no methionine"}, "[5]": {"conditions": "T-MAZ 20 BATCH 348, 2 weeks at 40° C., nisin formulated at 25 μg/ml, label nisin = water control"}, "[6]": {"conditions": "T-MAZ 20 BATCH 357, 2 weeks at 40° C., nisin formulated at 25 μg/ml, label nisin = water control"}, "[7]": {"conditions": "T-MAZ 20 batch 348, EDTA 1 mM, nisin 25 μg/ml, samples jd6-35-H 49-52"}, "[8]": {"conditions": "T-MAZ 20 batch 348, citrate 0.1%, nisin 25 μg/ml, samples jd6-35-H 53-56"}, "[9]": {"conditions": "T-MAZ 20 batch 348, citrate 0.3%, nisin 25 μg/ml, samples jd6-35-H 57-60"}, "[10]": {"conditions": "T-MAZ 20 batch 348, citrate 1.0%, nisin 25 μg/ml, samples jd6-35-H 61-64"}, "[11]": {"conditions": "T-MAZ 20 batch 357, EDTA 1 mM, nisin 25 μg/ml, samples jd6-35-H 33-36"}, "[12]": {"conditions": "T-MAZ 20 batch 357, citrate 0.1%, nisin 25 μg/ml, samples jd6-35-H 37-40"}, "[13]": {"conditions": "T-MAZ 20 batch 357, citrate 0.3%, nisin 25 μg/ml, samples jd6-35-H 41-44"}, "[14]": {"conditions": "T-MAZ 20 batch 357, citrate 1.0%, nisin 25 μg/ml, samples jd6-35-H 45-48"}},
  "note": "Where “and” joins values, the source holds several entries; their conditions need not be identical. Equal values may be shown once.",
  "data": [
    {"compound": "COC(=O)C(N)CCSC", "note": "(racemic) [DL-methionine methyl ester]", "values": [
      {"measurement": "Residual nisin concentration", "setting": "[1]; [4]", "result": "21.9 µg/mL and 20.8 µg/mL"}
    ]},
    {"compound": "CS(=O)(=O)CCC(N)C(=O)O", "note": "(racemic) [DL-methionine sulfone]", "values": [
      {"measurement": "Residual nisin concentration", "setting": "[1]; [4]", "result": 8.6, "unit": "µg/mL"}
    ]},
    {"compound": "C[S+]([O-])CCC(N)C(=O)O", "note": "(racemic) [DL-methionine sulfoxide]", "values": [
      {"measurement": "Residual nisin concentration", "setting": "[1]; [4]", "result": 8.6, "unit": "µg/mL"}
    ]},
    {"compound": "CSCCC(N)C(=O)O", "note": "(racemic) [DL-methionine]", "values": [
      {"measurement": "Residual nisin concentration", "setting": "[1]; [4]", "result": 19.7, "unit": "µg/mL"}
    ]},
    {"compound": "CSCCC(O)C(=O)O", "note": "(racemic) [MHA, 2-hydroxy-4-(methylthio)butanoic acid]", "values": [
      {"measurement": "Residual nisin concentration", "setting": "[1]; T-MAZ 20 1%, 6 days at 40° C., initial nisin 25 μg/ml, label nisin = no methionine, listed as methionine hydroxy analog (MHA Novus)", "result": 19.8, "unit": "µg/mL"},
      {"measurement": "Residual nisin concentration", "setting": "[1]; T-MAZ 20 1%, 6 days at 40° C., initial nisin 25 μg/ml, label nisin = no methionine, listed as methionine hydroxy analog (Sigma)", "result": 18.1, "unit": "µg/mL"},
      {"measurement": "Residual nisin concentration", "setting": "[1]; [5]", "result": 23.4, "unit": "µg/mL"},
      {"measurement": "Residual nisin concentration", "setting": "[1]; [6]", "result": 22.5, "unit": "µg/mL"}
    ]},
    {"compound": "O[C@H](CS)[C@H](O)CS", "note": "(racemic) [dithiothreitol]", "values": [
      {"measurement": "Protection of nisin in formulation by antioxidants, in words", "setting": "[2]", "result": "aggravated the stability problem"}
    ]},
    {"compound": "N[C@@H](CS)C(=O)O", "note": "[CySH, cysteine]", "values": [
      {"measurement": "Residual nisin concentration as a percentage of the theoretical concentration", "setting": "[1]; [7]", "result": 51, "unit": "%"},
      {"measurement": "Residual nisin concentration as a percentage of the theoretical concentration", "setting": "[1]; [8]", "result": 36, "unit": "%"},
      {"measurement": "Residual nisin concentration as a percentage of the theoretical concentration", "setting": "[1]; [9]", "result": 29, "unit": "%"},
      {"measurement": "Residual nisin concentration as a percentage of the theoretical concentration", "setting": "[1]; [10]", "result": 33, "unit": "%"},
      {"measurement": "Residual nisin concentration as a percentage of the theoretical concentration", "setting": "[1]; [11]", "result": 85, "unit": "%"},
      {"measurement": "Residual nisin concentration as a percentage of the theoretical concentration", "setting": "[1]; [12]", "result": 29, "unit": "%"},
      {"measurement": "Residual nisin concentration as a percentage of the theoretical concentration", "setting": "[1]; [13]", "result": 36, "unit": "%"},
      {"measurement": "Residual nisin concentration as a percentage of the theoretical concentration", "setting": "[1]; [14]", "result": 31, "unit": "%"}
    ]},
    {"compound": "CSCC[C@H](N)C(=O)O", "note": "[L-methionine]", "values": [
      {"measurement": "Residual nisin concentration", "setting": "[1]; [4]", "result": 19.9, "unit": "µg/mL"}
    ]},
    {"compound": "NCCCC[C@H](N)C(=O)O", "note": "[Lys, lysine]", "values": [
      {"measurement": "Residual nisin concentration as a percentage of the theoretical concentration", "setting": "[1]; [7]", "result": 56, "unit": "%"},
      {"measurement": "Residual nisin concentration as a percentage of the theoretical concentration", "setting": "[1]; [8]", "result": 45, "unit": "%"},
      {"measurement": "Residual nisin concentration as a percentage of the theoretical concentration", "setting": "[1]; [9]", "result": 47, "unit": "%"},
      {"measurement": "Residual nisin concentration as a percentage of the theoretical concentration", "setting": "[1]; [10]", "result": 49, "unit": "%"},
      {"measurement": "Residual nisin concentration as a percentage of the theoretical concentration", "setting": "[1]; [11]", "result": 80, "unit": "%"},
      {"measurement": "Residual nisin concentration as a percentage of the theoretical concentration", "setting": "[1]; [12]", "result": 71, "unit": "%"},
      {"measurement": "Residual nisin concentration as a percentage of the theoretical concentration", "setting": "[1]; [13]", "result": 71, "unit": "%"},
      {"measurement": "Residual nisin concentration as a percentage of the theoretical concentration", "setting": "[1]; [14]", "result": 71, "unit": "%"}
    ]},
    {"compound": "O=C1O[C@H]([C@@H](O)CO)C(O)=C1O", "note": "[ascorbate, ascorbic acid]", "values": [
      {"measurement": "Protection of nisin in formulation by antioxidants, in words", "setting": "[2]", "result": "aggravated the stability problem"}
    ]},
    {"compound": "O=C(O)CC(O)(CC(=O)O)C(=O)O", "note": "[citrate]", "values": [
      {"measurement": "Effect of humectant (glycerol, sorbitol) and chelating agent on nisin stability, in words", "setting": "[3]", "result": "superior to EDTA"}
    ]},
    {"compound": "N[C@@H](CS(=O)(=O)O)C(=O)O", "note": "[cysteic acid]", "values": [
      {"measurement": "Residual nisin concentration", "setting": "[1]; [5]", "result": 9.6, "unit": "µg/mL"},
      {"measurement": "Residual nisin concentration", "setting": "[1]; [6]", "result": 19.5, "unit": "µg/mL"}
    ]},
    {"compound": "N[C@@H](CSSC[C@H](N)C(=O)O)C(=O)O", "note": "[cystine]", "values": [
      {"measurement": "Residual nisin concentration", "setting": "[1]; [5]", "result": 9.0, "unit": "µg/mL"},
      {"measurement": "Residual nisin concentration", "setting": "[1]; [6]", "result": 11.1, "unit": "µg/mL"}
    ]},
    {"compound": "N[C@@H](CSC[C@H](N)C(=O)O)C(=O)O", "note": "[lanthionine]", "values": [
      {"measurement": "Residual nisin concentration", "setting": "[1]; [5]", "result": 10.7, "unit": "µg/mL"},
      {"measurement": "Residual nisin concentration", "setting": "[1]; [6]", "result": 18.2, "unit": "µg/mL"}
    ]},
    {"compound": "CSCC[C@H](N)C(=O)O", "note": "[methionine]", "values": [
      {"measurement": "Residual nisin concentration", "setting": "[1]; [5]", "result": 23.3, "unit": "µg/mL"},
      {"measurement": "Residual nisin concentration", "setting": "[1]; [6]", "result": 23.2, "unit": "µg/mL"},
      {"measurement": "Residual nisin concentration as a percentage of the theoretical concentration", "setting": "[1]; [7]", "result": 80, "unit": "%"},
      {"measurement": "Residual nisin concentration as a percentage of the theoretical concentration", "setting": "[1]; [8]", "result": 76, "unit": "%"},
      {"measurement": "Residual nisin concentration as a percentage of the theoretical concentration", "setting": "[1]; [9]", "result": 73, "unit": "%"},
      {"measurement": "Residual nisin concentration as a percentage of the theoretical concentration", "setting": "[1]; [10]", "result": 73, "unit": "%"},
      {"measurement": "Residual nisin concentration as a percentage of the theoretical concentration", "setting": "[1]; [11]", "result": 84, "unit": "%"},
      {"measurement": "Residual nisin concentration as a percentage of the theoretical concentration", "setting": "[1]; [12]", "result": 75, "unit": "%"},
      {"measurement": "Residual nisin concentration as a percentage of the theoretical concentration", "setting": "[1]; [13]", "result": 76, "unit": "%"},
      {"measurement": "Residual nisin concentration as a percentage of the theoretical concentration", "setting": "[1]; [14]", "result": 73, "unit": "%"}
    ]},
    {"compound": "O=S([O-])[O-].[Na+].[Na+]", "note": "[sodium sulfite]", "values": [
      {"measurement": "Protection of nisin in formulation by antioxidants, in words", "setting": "[2]", "result": "aggravated the stability problem"}
    ]},
    {"compound": "C1CSCN1", "note": "[thizaolidine, thiazolidine]", "values": [
      {"measurement": "Residual nisin concentration", "setting": "[1]; [5]", "result": 14.9, "unit": "µg/mL"},
      {"measurement": "Residual nisin concentration", "setting": "[1]; [6]", "result": 17.3, "unit": "µg/mL"},
      {"measurement": "Stabilization of nisin from degradation by sulfur-containing compounds, in words", "setting": "[1]; nisin 25 μg/ml, T-MAZ 20, propyleneglycol, 1-propanol, EDTA or citrate, pH 6, 40° C.", "result": "To a lesser degree, nisin was also stabilized"}
    ]}
  ]
}
